The target of assay [1] is T1, Glutamate carboxypeptidase II (GCPII) (Homo sapiens, UniProt Q04609).
T1 construct: gene FOLH1
As to the kind of experiment: LC/MS/MS measurement of Glu from GCPII cleavage of ([…]5 […]-labelled) NAAG. Format: biochemical.

Assay [2] concerns the target T1, Glutamate carboxypeptidase II (GCPII). As to the kind of experiment: LC/MS/MS enzymatic assay of Glu released from NAAG by purchased GCPII, 11-point IC50. Format: biochemical.

This note sets out measurements from publication PMC11737842, “Development of a high‐throughput dual‐stream liquid chromatography–tandem mass spectrometry method to screen for inhibitors of glutamate carboxypeptidase II” (Rapid Communications in Mass Spectrometry, 2024).

Residues, ends and D or L forms follow the SMILES beside them.

T1 sequence (Q04609 whole entry): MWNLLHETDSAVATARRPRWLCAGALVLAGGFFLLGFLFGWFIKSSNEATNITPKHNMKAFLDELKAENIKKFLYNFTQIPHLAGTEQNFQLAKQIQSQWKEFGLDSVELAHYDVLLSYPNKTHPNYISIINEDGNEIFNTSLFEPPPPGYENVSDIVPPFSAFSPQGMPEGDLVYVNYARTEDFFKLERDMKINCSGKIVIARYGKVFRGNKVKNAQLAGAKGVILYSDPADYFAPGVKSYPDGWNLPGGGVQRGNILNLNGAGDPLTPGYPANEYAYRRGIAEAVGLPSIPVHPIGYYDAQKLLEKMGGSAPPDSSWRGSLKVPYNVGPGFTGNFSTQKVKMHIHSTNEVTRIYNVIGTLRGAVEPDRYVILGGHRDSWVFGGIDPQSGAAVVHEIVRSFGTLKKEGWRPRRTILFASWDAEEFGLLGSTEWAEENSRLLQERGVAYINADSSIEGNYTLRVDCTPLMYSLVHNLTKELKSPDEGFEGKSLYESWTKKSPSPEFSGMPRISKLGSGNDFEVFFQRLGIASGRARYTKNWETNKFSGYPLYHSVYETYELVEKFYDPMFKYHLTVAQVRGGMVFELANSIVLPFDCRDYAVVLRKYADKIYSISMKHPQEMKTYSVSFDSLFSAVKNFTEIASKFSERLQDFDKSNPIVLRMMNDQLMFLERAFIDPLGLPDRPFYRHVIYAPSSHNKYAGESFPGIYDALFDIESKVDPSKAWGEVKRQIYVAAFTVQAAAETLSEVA

For `CC(=O)N[C@@H](CC(=O)O)C(=O)N[C@@H](CCC(=O)O)C(=O)O` [NAAG] (Ac-Asp-Glu-OH), the “LC/MS/MS measurement of Glu from GCPII cleavage of (13C5 15N-labelled) NAAG” value in assay [1] is on record as “LC/MS/MS) method to directly measure Glu resulting from in vitro GCPII cleavage of NAAG”. With `N[C@@H](Cn1oc(=O)[nH]c1=O)C(=O)O` [quisqualic acid], in assay [2], the IC50 is 1.59 µM.

For orientation: IC50 means the concentration at which inhibition is half-maximal.
